From publication PMC12377721 (2025)

What was measured:
Assay in all cases: ITC
Conditions in all cases: 500 mM NaCl, 20 mM MgCl2; 50 mM Tris pH 7.6, 25 °C
[1] = test system: 1301b_v1 (DNA, aptamer) CGACGTTTGCGATGAGAACGAAGTTCGAAGGTCG
[2] = test system: wild-type 1301b (DNA, aptamer) ACGACGTTTGCGATGAGAAACGTATGGTTTCGAAGGTCGT
[3] = test system: 9/10/14/16^OMe (DNA, aptamer, 2'-O-methyl at G9, C10, G14, G16) CGACGTTTGCGATGAGAACGAAGTTCGAAGGTCG

| SMILES | binding [1] | KD [1] [µM] | further results |
| --- | --- | --- | --- |
| Nc1nc2c(ncn2[C@@H]2O[C@H](COP(=O)(O)OP(=O)(O)OP(=O)(O)O)[C@@H](O)[C@H]2O)c(=O)[nH]1 | no |  |  |
| Nc1ncnc2c1ncn2[C@@H]1O[C@H](COP(=O)(O)O)[C@@H](O)[C@H]1O |  | 13.2 ± 2.4 |  |
| Nc1ncnc2c1ncn2[C@@H]1O[C@H](COP(=O)(O)OP(=O)(O)O)[C@@H](O)[C@H]1O |  | 4.4 ± 0.3 |  |
| Nc1ncnc2c1ncn2[C@@H]1O[C@H](COP(=O)(O)OP(=O)(O)OP(=O)(O)O)[C@@H](O)[C@H]1O |  | 1.9 ± 0.1 | KD [2]: 2.7 ± 0.6 µM; KD [3]: 3.8 ± 0.4 µM |

Further lines, with some results ahead:

| binding [1] | KD [1] [µM] | SMILES | further results |
| --- | --- | --- | --- |
| no |  | Cc1cn([C@H]2C[C@H](O)[C@@H](COP(=O)(O)OP(=O)(O)OP(=O)(O)O)O2)c(=O)[nH]c1=O |  |
| no |  | Nc1ccn([C@@H]2O[C@H](COP(=O)(O)OP(=O)(O)OP(=O)(O)O)[C@@H](O)[C@H]2O)c(=O)n1 |  |
|  | 3.4 ± 0.2 | Nc1ncnc2c1ncn2[C@H]1C[C@H](O)[C@@H](COP(=O)(O)OP(=O)(O)OP(=O)(O)O)O1 |  |
| no |  | O=c1ccn([C@@H]2O[C@H](COP(=O)(O)OP(=O)(O)OP(=O)(O)O)[C@@H](O)[C@H]2O)c(=O)[nH]1 |  |
